Experiments:
[1] = tested on: C57BL/6J mice; experiment: Morphine analgesic tolerance development, chronic co-administration (tail immersion test); format: in vivo; details: male (10 mg/kg) and female (20 mg/kg) mice; co-administered with morphine three times a day for three days
Protocol: Morphine tolerance was induced using repeated administration of increasing doses of morphine from 25 to 40 mg/kg three times a day at 3 to 4 h intervals over three consecutive days (Figure 9). This procedure was adapted from previous publications.[87]−[89]
Figure 9 Morphine analgesic tolerance “stair stepping” dosing regimen. TIT = tail immersion test. On day 1, TIT was conducted to determine baseline latencies for all mice. On days 1 through 3, each mouse was administered morphine s.c. three times per day at doses increasing from 25 to 40 mg/kg at 8:00 am, 12:00 pm, and 4:00 pm. Doses of morphine are shown above the arrows, in mg/kg. […]
Mouse weights were recorded on the day of each experiment. […] Three recordings were taken for each mouse, and each data point is expressed as the mean of the three recordings. […] The identities were not decoded until the data were analyzed.
Prism 9.3.1 software (GraphPad, San Diego, CA) was used for all data analysis and visualization. Data for intrinsic antinociception was analyzed using one-way ANOVA and Dunnett’s post hoc test for multiple comparisons where each group was compared to vehicle. Data for acute morphine potentiation experiments were analyzed using one-way ANOVA and Tukey’s post hoc test for multiple comparisons was also used, where each group mean was compared to the mean of every other group. […]

[2] = biological target: triheteromeric rat GluN1/GluN2Ac1/GluN2Bc2 (r2Ac1/r2Bc2) (Rattus norvegicus, UniProt P35439+Q00959+Q00960, A876H/F846L/G856D/H848F/K857R/M851T/M860L/Q845K/V861L); experiment: Concentration-inhibition curves, oocytes, C1/C2-tagged NMDARs; format: cell-based
[3] = tested on: hP2x; experiment: Off-target ligand-gated ion channels in Xenopus oocytes; format: cell-based, human; details: agonist 9 µM ATP; mean ± SEM
Protocol: EU93-108 was further examined for its behavior against common off-target receptors. First, selectivity for GluN2B over other ion channels in the brain was examined via two-electrode voltage clamp recordings of Xenopus oocytes expressing AMPA, kainate, nicotinic acetylcholine, serotonin, GABA, glycine, and ATP receptors. Current responses were tested with saturating concentrations of agonist in both the absence and presence of 10 μM EU93-108, and confirmed selectivity for GluN2B-containing NMDA receptors over AMPA, kainate, GABA, glycine, ATP, and 5-HT3A receptors (Supporting Table S3).
Receptor Agonist % Control
Supplemental Table S3. Off-target actions of EU93-108 at ligand-gated ion channels expressed in Xenopus oocytes. The mean ± standard error of the mean for agonist plus 10 μM EU93-108 as a percentage of agonist in vehicle are given for each compound and receptor tested. Number of oocytes tested is given in parentheses.

[4] = biological target: GluN1/GluN2D (Rattus norvegicus, UniProt P35439+Q62645)
Chain of GluN1/GluN2D (Q62645 28-1323, other chains not shown): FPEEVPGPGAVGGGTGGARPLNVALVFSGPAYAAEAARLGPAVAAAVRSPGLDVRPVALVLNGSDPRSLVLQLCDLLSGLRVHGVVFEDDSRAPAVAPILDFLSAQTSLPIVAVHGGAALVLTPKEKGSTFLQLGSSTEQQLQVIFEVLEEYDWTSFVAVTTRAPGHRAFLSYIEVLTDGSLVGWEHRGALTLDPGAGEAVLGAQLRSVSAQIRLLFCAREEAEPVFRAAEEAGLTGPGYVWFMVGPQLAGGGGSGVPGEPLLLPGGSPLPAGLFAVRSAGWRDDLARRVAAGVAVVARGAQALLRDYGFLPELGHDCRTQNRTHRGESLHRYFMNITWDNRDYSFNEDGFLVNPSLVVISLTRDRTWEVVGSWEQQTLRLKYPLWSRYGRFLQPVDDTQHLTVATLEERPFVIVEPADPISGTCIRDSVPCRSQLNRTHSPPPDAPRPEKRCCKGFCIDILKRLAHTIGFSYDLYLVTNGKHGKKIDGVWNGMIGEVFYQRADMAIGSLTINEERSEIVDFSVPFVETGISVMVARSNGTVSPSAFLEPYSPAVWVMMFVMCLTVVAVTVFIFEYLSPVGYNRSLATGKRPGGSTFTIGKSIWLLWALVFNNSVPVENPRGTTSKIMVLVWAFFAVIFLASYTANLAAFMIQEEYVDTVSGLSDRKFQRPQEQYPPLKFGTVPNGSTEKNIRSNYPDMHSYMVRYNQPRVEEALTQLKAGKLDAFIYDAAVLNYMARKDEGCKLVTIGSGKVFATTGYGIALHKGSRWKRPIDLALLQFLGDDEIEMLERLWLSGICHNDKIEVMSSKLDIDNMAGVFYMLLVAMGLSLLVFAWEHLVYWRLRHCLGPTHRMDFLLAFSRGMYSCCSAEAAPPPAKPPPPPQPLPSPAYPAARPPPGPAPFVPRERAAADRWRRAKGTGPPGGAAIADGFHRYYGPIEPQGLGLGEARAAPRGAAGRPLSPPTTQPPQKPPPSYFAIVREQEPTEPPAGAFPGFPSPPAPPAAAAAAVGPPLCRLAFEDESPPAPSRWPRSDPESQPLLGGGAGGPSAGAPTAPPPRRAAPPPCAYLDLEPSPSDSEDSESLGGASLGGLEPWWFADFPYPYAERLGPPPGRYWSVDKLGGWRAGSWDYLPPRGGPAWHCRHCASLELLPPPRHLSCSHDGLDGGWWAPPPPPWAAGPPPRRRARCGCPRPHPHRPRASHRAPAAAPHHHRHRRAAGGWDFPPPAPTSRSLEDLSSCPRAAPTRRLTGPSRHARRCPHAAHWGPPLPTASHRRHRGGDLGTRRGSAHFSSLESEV

Compound: CS(=O)(=O)Nc1ccc(OC[C@@H](O)CN2CCN(c3ccc(F)c(F)c3)CC2)cc1 [EU93-108, (S)-N-(4-(3-(4-(3,4-Difluorophenyl)piperazin-1-yl)-2-hydroxypropoxy)phenyl)methanesulfonamide]
- effect on development of morphine tolerance [1]: failed to inhibit the development of tolerance
- residual current remaining at 10 μM EU93-108 ([2]; 10 μM, % of maximal response, n = 12): 54%
- IC50 ([2]; 100 μM glutamate and 100 μM glycine, −40 mV, pH 7.4, n = 12): 543 nM
- nH ([2]; Hill slope factor of the inhibition curve, Table S1): -0.92
- Ymin ([2]; residual response, Table S1, N = 12): 54.0
- % Control 10 µM EU93-108 [3]: 96.6 ± 4.3%
- % Control 10 µM EU93-108 ([4]; agonist 100 µM glutamate, 30 µM glycine, mean ± SEM): 97 ± 1.9%
- inhibition at 10 µM ([4]; read-out: Mean % Inhibition by 10 μM EU93-108): 4.6 ± 1.2%
